Measurements as given in US6777425B2, “Isoquinoline compounds having antiinfective activity” (Genesoft Pharmaceuticals, Inc., priority 2001, dated 2004).
Converted amounts (≈) assume the structure as drawn.

Legend:
B. cereus ATCC 11778 = assay: NCCLS broth microdilution MIC, B. cereus; assay type: cell-based, Bacillus cereus; conditions: organism A = B. cereus ATCC 11778; for MIC: Bacillus cereus, ATCC11778, read-out: Minimum Inhibitory Concentration (MIC)
Source text: (§1) Compounds according to this invention were screened for their in vitro activities against selected species of bacteria and fungi. […]

C. albicans ATCC 38247 = assay: Antifungal MIC, C. albicans; assay type: cell-based, Candida albicans; conditions: organism B = C. albicans ATCC 38247; for MIC: Candida albicans, ATCC38247, read-out: Minimum Inhibitory Concentration (MIC)
Source text: as §1

E. faecalis ATCC 29212 = assay: NCCLS broth microdilution MIC, E. faecalis; assay type: cell-based; conditions: organism C = E. faecalis ATCC 29212; for MIC: Enterococcus faecalis, ATCC29212, read-out: Minimum Inhibitory Concentration (MIC)
Source text: as §1

S. aureus ATCC 13709 = assay: NCCLS broth microdilution MIC, S. aureus (MSSA); assay type: cell-based, Staphylococcus aureus; conditions: organism E = S. aureus ATCC 13709 (MSSA); for MIC: Staphylococcus aureus, read-out: Minimum Inhibitory Concentration (MIC)
Source text: as §1

S. aureus ATCC 27660 = assay: NCCLS broth microdilution MIC, S. aureus (MRSA); assay type: cell-based, Staphylococcus aureus; conditions: organism F = S. aureus ATCC 27660 (MRSA)
Source text: as §1

S. pneumoniae ATCC 49619 = assay: NCCLS broth microdilution MIC, S. pneumoniae ATCC 49619; assay type: cell-based, Streptococcus pneumoniae; conditions: organism H = S. pneumoniae ATCC 49619; for MIC: Streptococcus pneumoniae, ATCC49619, read-out: Minimum Inhibitory Concentration (MIC)
Source text: as §1

[1] = test system: methicillin resistant Staphylococcus aureus ATCC 33591; assay: Murine neutropenic thigh model; assay type: in vivo; conditions: thigh at 6 hr, neutropenic CF1 mice
Description: The suspension was diluted 1:100 in phosphate buffered saline (pH 7.2) for a final concentration of 10^6 cfu/mL.
Outbred female CF1 mice (approx. 20 gram body weight) were rendered neutropenic by treatment with cyclophosphamide (200 mg/kg body weight, intraperitoneal injection) at 2 and 4 days prior to inoculation. Groups of 5 mice were inoculated with 0.05 mL of the bacteria (approx. 10^6 cfu/mL) into the anterior thigh. Each group was treated intravenously two hours post infection with vehicle (phosphate buffered saline) or test compound. The mice were sacrificed at either 6 or 24 hrs after treatment and thighs were collected aseptically. Each thigh was weighed, placed into sterile saline, and homogenized. The tissue homogenates were diluted appropriately for plating on agar plates. Colony counts were recorded (cfu/gram) and compared to control groups.

[2] = target: target sequence AGTACT, 310 base pair dsDNA restriction fragment of Plasmid A; assay: Quantitative DNase I footprint titration, AGTACT; assay type: binding; conditions: 310 bp/A, pH 7.0, 22° C., read-out: Dissociation Constant Kd
[3] = target: target sequence AATTAATCAT, 352 base pair dsDNA restriction fragment of Plasmid B; assay: Quantitative DNase I footprint titration, […]; assay type: binding; conditions: 352 bp/B, pH 7.0, 22° C., read-out: Dissociation Constant Kd
E. faecium ATCC 51559 = assay: NCCLS broth microdilution MIC, E. faecium (VRE); assay type: cell-based, Enterococcus faecium; conditions: organism D = E. faecium ATCC 51559 (VRE)
Source text: as §1

[4] = test system: S. epidermidis ATCC 12228; assay: NCCLS broth microdilution MIC, S. epidermidis; assay type: cell-based, Staphylococcus epidermidis; conditions: organism G = S. epidermidis ATCC 12228
Source text: as §1

S. pneumoniae ATCC 51422 = assay: NCCLS broth microdilution MIC, S. pneumoniae (PRSP); assay type: cell-based, Streptococcus pneumoniae; conditions: organism I = S. pneumoniae ATCC 51422 (PRSP)
Source text: as §1

[5] = target: target sequence ACAATTAAT, 352 bp fragment of Plasmid B; assay: Quantitative DNase I footprint titration, […]; assay type: binding; conditions: 352 bp/B, pH 7.0, 22° C., read-out: Dissociation Constant Kd
[6] = 50 mg/kg intravenously two hours post infection

Compound | Minimum Inhibitory Concentration (MIC) (B. cereus ATCC 11778) | Minimum Inhibitory Concentration (MIC) (C. albicans ATCC 38247) | Minimum Inhibitory Concentration (MIC) (E. faecalis ATCC 29212) | Minimum Inhibitory Concentration (MIC) (S. aureus ATCC 13709) | Minimum Inhibitory Concentration (MIC) (S. aureus ATCC 27660) | Minimum Inhibitory Concentration (MIC) (S. pneumoniae ATCC 49619) | Colony Count (log cfu/gram), Compound [1, 6] [log cfu/gram] | MIC (B. cereus ATCC 11778) [µg/mL] | MIC (C. albicans ATCC 38247) [µg/mL] | MIC (E. faecalis ATCC 29212) [µg/mL] | MIC (S. aureus ATCC 13709) [µg/mL] | MIC (S. pneumoniae ATCC 49619) [µg/mL] | Kd [2] [nM] | Kd [3] [nM] | Minimum Inhibitory Concentration (MIC) (E. faecium ATCC 51559) | Minimum Inhibitory Concentration (MIC) [4] | Minimum Inhibitory Concentration (MIC) (S. pneumoniae ATCC 51422) | also measured
Cn1cc(NC(=O)c2cc(NC(=O)c3cc(NC(=O)c4cc5ccccc5cn4)cn3C)c[nH]2)cc1C(=O)NCCN1CCOCC1 [Ib-67] | +++ (+++ = MIC ≦ 4) | >32 µg/mL | +++ (+++ = MIC ≦ 4) | +++ (+++ = MIC ≦ 4) | +++ (+++ = MIC ≦ 4) | +++ (+++ = MIC ≦ 4) | 5.79 |  |  |  |  |  |  |  |  |  |  | Colony Count (log cfu/gram), Compound ([1]; 25 mg/kg intravenously two hours post infection): 6.61 log cfu/gram
Cn1cc(NC(=O)c2cc(NC(=O)c3cc(NC(=O)c4cc5ccccc5cn4)no3)cn2C)cc1C(=O)NCCN1CCOCC1 [Ib-60] |  |  |  |  |  |  |  | < 4 | > 32 | < 4 | < 4 | < 4 | 10 | 5 |  |  |  | 
Cn1cc(NC(=O)c2cc3ccccc3cn2)cc1C(=O)Nc1cc(C(=O)Nc2cc(C(=O)NCCN3CCCCC3)n(CCN3CCCCC3)c2)n(C)c1 [Ib-68] | +++ (+++ = MIC ≦ 4) | + (+ = 12 ≦ MIC ≦ 32) | +++ (+++ = MIC ≦ 4) | +++ (+++ = MIC ≦ 4) | +++ (+++ = MIC ≦ 4) | +++ (+++ = MIC ≦ 4) | 6.36 |  |  |  |  |  |  |  |  |  |  | 
Cc1cc(NC(=O)c2cc(NC(=O)c3cc(NC(=O)c4cc5ccccc5cn4)cn3C)cn2CCCN(C)C)sn1 [Ib-66] | +++ (+++ = MIC ≦ 4) | +++ (+++ = MIC ≦ 4) | +++ (+++ = MIC ≦ 4) | +++ (+++ = MIC ≦ 4) | +++ (+++ = MIC ≦ 4) | +++ (+++ = MIC ≦ 4) | 6.66 |  |  |  |  |  |  |  | ++ (++ = 4 < MIC < 12) | +++ (+++ = MIC ≦ 4) | +++ (+++ = MIC ≦ 4) | 
Cn1cc(NC(=O)c2cc3ccccc3cn2)cc1C(=O)Nc1cc(C(=O)Nc2cc(C(=O)NCCN3CCCCC3)ns2)n(C)c1 [Ib-59] | +++ (+++ = MIC ≦ 4) | >32 µg/mL | +++ (+++ = MIC ≦ 4) | +++ (+++ = MIC ≦ 4) | +++ (+++ = MIC ≦ 4) | +++ (+++ = MIC ≦ 4) |  |  |  |  |  |  | 50 |  | +++ (+++ = MIC ≦ 4) | +++ (+++ = MIC ≦ 4) | +++ (+++ = MIC ≦ 4) | Kd [5]: 1 nM
Cn1cc(NC(=O)c2cc3ccccc3cn2)cc1C(=O)Nc1cc(C(=O)Nc2cc(C(=O)NCCN3CCOCC3)n(CCN3CCOCC3)c2)n(C)c1 [Ib-56] |  |  |  |  |  |  |  | < 4 | > 32 | < 4 | < 4 | < 4 | < 100 | 5 |  |  |  | MIC (E. faecium ATCC 51559; Enterococcus faecium, read-out: Minimum Inhibitory Concentration (MIC)): 4 to 12 µg/mL (≈ 5.33 to 16 µM); MIC (S. aureus ATCC 27660; Staphylococcus aureus, read-out: Minimum Inhibitory Concentration (MIC)): < 4 µg/mL; MIC ([4]; Staphylococcus epidermidis, ATCC12228, read-out: Minimum Inhibitory Concentration (MIC)): < 4 µg/mL; MIC (S. pneumoniae ATCC 51422; Streptococcus pneumoniae, read-out: Minimum Inhibitory Concentration (MIC)): < 4 µg/mL
